EC50 data for 17 molecules are collected here from patent publication US20250136606A1, “MODULATORS OF TRPML, THEIR COMPOSITIONS AND METHODS OF USE” (Caraway Therapeutics, Inc., priority 2021, published 2025).

Format in all cases: cell-based
One test has as its target T1, TRPML3 (Homo sapiens, UniProt Q8TDD5).
T1 construct: expressed in transfected cells
T1 sequence (Q8TDD5 1-553): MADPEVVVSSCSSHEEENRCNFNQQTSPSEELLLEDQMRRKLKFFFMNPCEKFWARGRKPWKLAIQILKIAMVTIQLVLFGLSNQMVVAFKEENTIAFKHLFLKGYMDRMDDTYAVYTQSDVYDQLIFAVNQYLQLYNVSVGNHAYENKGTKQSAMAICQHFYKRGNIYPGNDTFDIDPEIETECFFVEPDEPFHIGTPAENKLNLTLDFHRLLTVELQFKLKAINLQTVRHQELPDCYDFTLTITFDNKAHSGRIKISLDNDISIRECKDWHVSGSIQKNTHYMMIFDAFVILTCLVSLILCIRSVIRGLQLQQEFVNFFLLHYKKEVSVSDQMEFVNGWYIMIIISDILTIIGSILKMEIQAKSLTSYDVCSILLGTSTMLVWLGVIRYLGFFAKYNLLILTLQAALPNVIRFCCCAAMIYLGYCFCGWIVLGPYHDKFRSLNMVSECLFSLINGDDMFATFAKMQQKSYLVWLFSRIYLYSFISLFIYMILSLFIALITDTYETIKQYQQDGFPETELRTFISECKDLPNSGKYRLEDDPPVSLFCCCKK
Nature of the test: Fluorescent TRPML3 assay (performed as for TRPML1, substituting the TRPML3 subtype). Summed up: (§1)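 Agonist activity is scored as percent of plate controls from Fluo4 fluorescence after dye-loaded, doxycycline-induced HEK-293 Trex cells meet compound in high-calcium (10 mM) Ringer's. Compounds run in half-log dilutions from 20 micromolar final, in triplicate.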

The target of a further test is T2, TRPML2 (Homo sapiens, UniProt Q8IZK6).
T2 construct: expressed in transfected cells
T2 sequence (Q8IZK6 1-566): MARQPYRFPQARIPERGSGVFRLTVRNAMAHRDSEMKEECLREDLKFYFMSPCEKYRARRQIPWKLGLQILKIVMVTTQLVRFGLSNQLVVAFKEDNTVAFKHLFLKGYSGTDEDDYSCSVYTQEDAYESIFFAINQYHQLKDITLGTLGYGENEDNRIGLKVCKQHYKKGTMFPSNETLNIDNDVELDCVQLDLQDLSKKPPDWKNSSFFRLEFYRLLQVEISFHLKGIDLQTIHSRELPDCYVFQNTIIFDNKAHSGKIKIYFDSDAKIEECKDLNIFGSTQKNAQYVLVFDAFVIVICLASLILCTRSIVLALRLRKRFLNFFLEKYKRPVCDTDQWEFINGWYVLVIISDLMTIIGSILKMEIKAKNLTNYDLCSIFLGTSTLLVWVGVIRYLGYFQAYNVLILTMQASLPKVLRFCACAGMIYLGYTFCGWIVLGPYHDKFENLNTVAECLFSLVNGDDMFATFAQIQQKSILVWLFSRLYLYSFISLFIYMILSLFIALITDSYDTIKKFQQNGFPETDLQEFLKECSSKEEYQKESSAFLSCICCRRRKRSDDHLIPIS
Kind of test: Fluorescent TRPML2 assay (performed as for TRPML1, substituting the TRPML2 subtype). Summed up:
as §1

A further test concerns the target TRPML1 (Homo sapiens, UniProt Q9GZU1). Nature of the test: Fluorescent TRPML1 assay (Fluo4-AM calcium fluorescence in doxycycline-induced HEK-293 Trex cells). The method, boiled down:
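hTRPML1 (mutated for cell-surface expression) in HEK-293 Trex, dox 0.5 ug/mL o/n; Fluo4-AM 1 uM ~60 min, then ~60 min de-esterification, dark; modified Ringer's + 10 mM Ca. Cmpds 20 uM–6 nM final, half-log, n=3. Ex480/Em540; % activity vs ctrls; EC50 by nonlinear regression.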

Where two headings read alike, the source gives them in different places.

Sequence of TRPML1 (Q9GZU1 whole entry L15A/L16A/L577A/L578A, form open): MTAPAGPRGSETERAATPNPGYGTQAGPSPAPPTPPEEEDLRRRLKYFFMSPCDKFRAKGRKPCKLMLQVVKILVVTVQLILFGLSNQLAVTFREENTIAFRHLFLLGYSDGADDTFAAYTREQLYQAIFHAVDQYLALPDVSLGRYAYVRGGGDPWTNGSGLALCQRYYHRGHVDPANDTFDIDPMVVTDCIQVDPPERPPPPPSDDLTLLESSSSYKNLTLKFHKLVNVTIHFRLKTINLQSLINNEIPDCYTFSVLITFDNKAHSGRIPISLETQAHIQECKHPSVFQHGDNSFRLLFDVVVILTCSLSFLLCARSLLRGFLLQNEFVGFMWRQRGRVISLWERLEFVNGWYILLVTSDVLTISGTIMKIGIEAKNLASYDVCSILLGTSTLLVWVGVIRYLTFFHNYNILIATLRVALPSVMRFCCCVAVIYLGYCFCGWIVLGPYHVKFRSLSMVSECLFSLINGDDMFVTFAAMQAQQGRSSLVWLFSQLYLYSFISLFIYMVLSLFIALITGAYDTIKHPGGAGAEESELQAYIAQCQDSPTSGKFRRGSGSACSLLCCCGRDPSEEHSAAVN

On to `CCOC(=O)N1C[C@H](C)N(c2ncnc3c2c(-c2ccccc2F)cn3-c2ccccn2)C[C@H]1C` [Compound 137, ethyl (2R,5S)-4-(5-(2-fluorophenyl)-7-(pyridin-2-yl)-7H-pyrrolo[2,3-d]pyrimidin-4-yl)-2,5-dimethylpiperazine-1-carboxylate], for which the EC50 (commonly the concentration needed to bring the measured effect to its halfway point) is 100 to 500 nM on TRPML3 (fluorescent calcium assay), 500 to 2000 nM at TRPML2 (fluorescent calcium assay) and 100 to 500 nM at TRPML1 (fluorescent calcium assay).

On to `C[C@@H]1CN(c2ncnc3c2c(C(F)(F)F)cn3-c2cc(F)cc(F)c2)[C@@H](C)CN1C(=O)OC1(C)CC1` [Compound 661, 1-methylcyclopropyl (2R,5S)-4-(7-(3,5-difluorophenyl)-5-(trifluoromethyl)-7H-pyrrolo[2,3-d]pyrimidin-4-yl)-2,5-dimethylpiperazine-1-carboxylate], for which the EC50 at TRPML3 lay in the range of 100 to 500 nM; on TRPML2 it was 500 to 2000 nM; on TRPML1 it was 100 to 500 nM.

Take `C[C@@H]1CN(c2ncnc3c2c(-c2ccccc2F)cn3-c2cnn(C)c2)[C@@H](C)CN1C(=O)OC(C)(C)C` [Compound 176, tert-butyl (2R,5S)-4-(5-(2-fluorophenyl)-7-(1-methyl-1H-pyrazol-4-yl)-7H-pyrrolo[2,3-d]pyrimidin-4-yl)-2,5-dimethylpiperazine-1-carboxylate]: the concentration giving a half-maximal response (EC50) is 100 to 500 nM at TRPML3 (fluorescent calcium assay), 500 to 2000 nM on TRPML2 (fluorescent calcium assay) and 100 to 500 nM at TRPML1 (fluorescent calcium assay).

As for `C[C@H]1CN(C(=O)OC(C)(C)C)CCN1c1ncnc2c1c(N1CCCC1=O)cn2-c1cccc(Cl)c1` [Compound 309, tert-butyl (S)-4-(7-(3-chlorophenyl)-5-(2-oxopyrrolidin-1-yl)-7H-pyrrolo[2,3-d]pyrimidin-4-yl)-3-methylpiperazine-1-carboxylate], the EC50 was 500 to 2000 nM at TRPML3 (fluorescent calcium assay), > 2000 nM on TRPML2 (fluorescent calcium assay) and > 2000 nM at TRPML1 (fluorescent calcium assay).

In the case of `CC(C)(C)OC(=O)N1CCN(c2ncnc3c2c(C(F)(F)F)cn3-c2cc(C#N)ccn2)C(C)(C)C1` [Compound 528, tert-butyl 4-(7-(4-cyanopyridin-2-yl)-5-(trifluoromethyl)-7H-pyrrolo[2,3-d]pyrimidin-4-yl)-3,3-dimethylpiperazine-1-carboxylate], the EC50 is < 100 nM on TRPML3, < 100 nM on TRPML2 and 100 to 500 nM at TRPML1.

Take `Cc1nccnc1-c1cn(-c2cc(F)cc(F)c2)c2ncnc(N3CCN(C(=O)OC(C)(C)C)[C@H](C)C3)c12` [Compound 242, tert-butyl (R)-4-(7-(3,5-difluorophenyl)-5-(3-methylpyrazin-2-yl)-7H-pyrrolo[2,3-d]pyrimidin-4-yl)-2-methylpiperazine-1-carboxylate]: the EC50 at TRPML3 (fluorescent calcium assay), on TRPML2 (fluorescent calcium assay) and at TRPML1 (fluorescent calcium assay) was 100 to 500 nM throughout.

On to `C[C@H]1CN(C(=O)OC(C)(C)C)CCN1c1ncnc2c1c(C1CC1)cn2-c1cc(C#N)ncn1` [Compound 431, tert-butyl (S)-4-(7-(6-cyanopyrimidin-4-yl)-5-cyclopropyl-7H-pyrrolo[2,3-d]pyrimidin-4-yl)-3-methylpiperazine-1-carboxylate], for which the EC50 was < 100 nM on TRPML3 (fluorescent calcium assay), 500 to 2000 nM on TRPML2 (fluorescent calcium assay) and 100 to 500 nM on TRPML1 (fluorescent calcium assay).

Regarding `CCc1nccnc1-c1cn(-c2cccc(Cl)c2)c2ncnc(N3CCN(C(=O)OC(C)(C)C)C[C@@H]3C)c12` [Compound 271, tert-butyl (S)-4-(7-(3-chlorophenyl)-5-(3-ethylpyrazin-2-yl)-7H-pyrrolo[2,3-d]pyrimidin-4-yl)-3-methylpiperazine-1-carboxylate], the EC50 at TRPML3 (fluorescent calcium assay), on TRPML2 (fluorescent calcium assay) and at TRPML1 (fluorescent calcium assay) was 100 to 500 nM in each case.

As to `[2H]C([2H])([2H])[C@@H]1CN(c2ncnc3c2c(C(F)(F)F)cn3-c2cc(C#N)ccn2)[C@@H](C)CN1C(=O)OC(C)(C)C` [Compound 707, tert-butyl (2R,5S)-4-(7-(4-cyanopyridin-2-yl)-5-(trifluoromethyl)-7H-pyrrolo[2,3-d]pyrimidin-4-yl)-5-methyl-2-(methyl-d3)piperazine-1-carboxylate], the 50% effective concentration (EC50) on TRPML3, on TRPML2 and on TRPML1 was < 100 nM in each case.

`C[C@@H]1CN(c2ncnc3c2c(N2CCC[C@H]2C)cn3-c2cccc(Cl)c2)CCN1C(=O)OC(C)(C)C` [Compound 299, tert-butyl (R)-4-(7-(3-chlorophenyl)-5-((R)-2-methylpyrrolidin-1-yl)-7H-pyrrolo[2,3-d]pyrimidin-4-yl)-2-methylpiperazine-1-carboxylate]: the EC50 at TRPML3 (fluorescent calcium assay) is 500 to 2000 nM; on TRPML2 (fluorescent calcium assay), > 2000 nM; on TRPML1 (fluorescent calcium assay), 500 to 2000 nM.

Regarding `C[C@H]1CN(C(=O)OC(C)(C)C)CCN1c1ncnc2c1c(C1CC1)cn2C1CCCC1` [Compound 339, tert-butyl (S)-4-(7-cyclopentyl-5-cyclopropyl-7H-pyrrolo[2,3-d]pyrimidin-4-yl)-3-methylpiperazine-1-carboxylate], the EC50 was 100 to 500 nM at TRPML3 (fluorescent calcium assay), > 2000 nM at TRPML2 (fluorescent calcium assay) and 100 to 500 nM on TRPML1 (fluorescent calcium assay).

Regarding `CC(C)(CF)OC(=O)N1CCN(c2ncnc3c2c(-c2ccccc2F)cn3-c2cccnc2)CC1` [Compound 172, 1-fluoro-2-methylpropan-2-yl 4-(5-(2-fluorophenyl)-7-(pyridin-3-yl)-7H-pyrrolo[2,3-d]pyrimidin-4-yl)piperazine-1-carboxylate], the EC50 is 500 to 2000 nM at TRPML3 (fluorescent calcium assay), > 2000 nM at TRPML2 (fluorescent calcium assay) and 500 to 2000 nM on TRPML1 (fluorescent calcium assay).

For the molecule `CC1CN(C(=O)OC(C)(C)C)CCN1c1nccc2c1c(-c1cnccn1)cn2-c1cccc(Cl)c1` (stereo not drawn) [Compound 190, tert-Butyl 4-(1-(3-chlorophenyl)-3-(pyrazin-2-yl)-1H-pyrrolo[3,2-c]pyridin-4-yl)-3-methylpiperazine-1-carboxylate], the EC50 on TRPML3 (fluorescent calcium assay) was in the range of 100 to 500 nM; on TRPML2 (fluorescent calcium assay), 500 to 2000 nM; at TRPML1 (fluorescent calcium assay), 500 to 2000 nM.

`C[C@@H]1CN(c2ncnc3c2c(-c2ccccc2F)cn3-c2ccccn2)[C@@H](C)CN1C(=O)OC(C)(C)C` [Compound 134, tert-butyl (2R,5S)-4-(5-(2-fluorophenyl)-7-(pyridin-2-yl)-7H-pyrrolo[2,3-d]pyrimidin-4-yl)-2,5-dimethylpiperazine-1-carboxylate]: the EC50 on TRPML3 (fluorescent calcium assay) was < 100 nM; at TRPML2 (fluorescent calcium assay), 100 to 500 nM; on TRPML1 (fluorescent calcium assay) it was < 100 nM.

For `CC(C)(C)OC(=O)N1CCN(c2ncnc3c2c(-c2ccccn2)cn3-c2cccc(Cl)c2)CC1` [Compound 101, tert-butyl 4-(7-(3-chlorophenyl)-5-(pyridin-2-yl)-7H-pyrrolo[2,3-d]pyrimidin-4-yl)piperazine-1-carboxylate], the EC50 at TRPML3 (fluorescent calcium assay) was < 100 nM; on TRPML2 (fluorescent calcium assay), 100 to 500 nM; on TRPML1 (fluorescent calcium assay) it was 100 to 500 nM.

Take `C[C@@H]1CN(c2ncnc3c2c(-c2cccnc2)cn3-c2cc(F)cc(F)c2)CCN1C(=O)OC(C)(C)C` [Compound 214, tert-butyl (R)-4-(7-(3,5-difluorophenyl)-5-(pyridin-3-yl)-7H-pyrrolo[2,3-d]pyrimidin-4-yl)-2-methylpiperazine-1-carboxylate]: the EC50 lay in the range of 100 to 500 nM at TRPML3 (fluorescent calcium assay), 500 to 2000 nM on TRPML2 (fluorescent calcium assay) and 100 to 500 nM at TRPML1 (fluorescent calcium assay).

Turning to `C[C@@H]1CN(c2ncnc3c2c(-c2ccccc2F)cn3-c2cc(F)ccn2)[C@@H](C)CN1C(=O)OC(C)(C)C` [Compound 452, tert-butyl (2R,5S)-4-(5-(2-fluorophenyl)-7-(4-fluoropyridin-2-yl)-7H-pyrrolo[2,3-d]pyrimidin-4-yl)-2,5-dimethylpiperazine-1-carboxylate], the EC50 on TRPML3 (fluorescent calcium assay) is < 100 nM; at TRPML2 (fluorescent calcium assay), 100 to 500 nM; at TRPML1 (fluorescent calcium assay) it was < 100 nM.
